Assay [1] has as its system pTau. The assay can be described thus: pTau in the hippocampus of treated Tg2576 mice (western blot). It is filed as in vivo. The settings on record: Vorinostat 12.5 mg/Kg, Tadalafil 1 mg/Kg, mean ± standard deviation. How it is done:
(§1) Amyloid and Tau pathology was analyzed in the hippocampus of treated animals. Hippocampus was weighed and homogenized in 8 mass of ice-cold buffer containing a cold lysis buffer with protease inhibitors (0.2 M NaCl, 0.1 M HEPES (4-(2-hydroxyethyl)-1-piperazineethanesulfonic acid), 10% glycerol, 200 mM NaF, 2 mM Na4P2O7, 5 mM EDTA (ethylenediaminetetraacetic acid), 1 mM EGTA (ethylene glycol tetraacetic acid), 2 mM DTT (dithiothreitol), 0.5 mM PMSF (phenylmethylsulfonyl fluoride), 1 mM Na3VO4 and Complete Protease Inhibitor Cocktail, Roche Diagnostics), centrifuged at 14,000×g 4° C. for 20 min and the supernatant was aliquoted and stored at −80° C. Total protein concentrations were determined using the BioRad Bradford protein assay (BioRad Laboratories).
pTau was analyzed by western blot in the hippocampus of treated animals. […] Following two washes in TBS/Tween20 and one wash in TBS alone, immunolabelled protein bands were detected using HRP-conjugated anti-rabbit or anti-mouse antibodies (diluted 1:5,000 Santa Cruz). Binding was visualised by enhanced chemiluminescence (ECL, GE Healthcare Bioscience, Buckinghamshire, UK) and autoradiographic exposure to Hyperfilm ECL (GE Healthcare Bioscience), using Quantity One™ software v.4.6.3 (Bio-Rad) for quantification.

For assay [2], the system named is acetylated histone 3 at Lys9 (AcH3K9). The assay can be described thus: HDAC activity in wild type neurons: Western blot of acetylated histone 3 (AcH3K9) in primary neuronal cultures. In kind it is cell-based, mice. The settings on record: 2 h. How it is done:
(§2) The cellular assay to determine HDAC activity was assessed by Western blot analysis using a specific antibody against acetylated histone 3 at Lys9 (AcH3K9, Cell Signalling).
Primary neuronal cultures derived from the hippocampus and cortex of embryonic day 16 of wild type mice were used. Tissue was triturated using glass pipettes until neurons were dissociated. Neurons were plated with serum-free neurobasal media with B27 supplement (Invitrogen, Gaithersburg, Md.) and 2 mM L-glutamine on poly-L-lysine-treated (0.1 mg/ml; Sigma) 35 mm dishes.
To determine the concentration-response curve effect of Vorinostat and Tadalafil, cell cultures of 15 days in vitro were treated at different concentrations (10, 100 and 500 nM) during 2 h (Table 5).
Thus, to determine if a synergistic effect on epigenetic mark (AcH3) exists when both compounds are combined, Vorinostat at 50 nM was combined with Tadalafil at different concentrations (12.5, 25, 50, 100 and 200 nM) during 2 h (Table 6).
as §1, with “Cells were collected” for “Amyloid and Tau pathology was analyzed”, “a” for “the hippocampus of treated animals. Hippocampus was weighed and homogenized in 8 mass of ice-cold”
Protein samples were mixed with Laemmli sample buffer, resolved onto SDS-polyacrylamide gels and transferred to nitrocellulose membrane. The membranes were blocked with 5% milk, 0.05% Tween-20 in PBS (Phosphate-Buffered Saline) or TBS (Tris-Buffered Saline) followed by overnight incubation with the following primary antibodies: rabbit polyclonal anti-acetylated Histone 3 (acetyl K9, Cell Signalling 1:1000), mouse monoclonal anti-actin (Sigma, 1:50000) in the corresponding buffer. Following two washes in TBS/Tween20 and one wash in TBS alone, immunolabeled protein bands were detected by using HRP-conjugated anti-rabbit or anti-mouse antibody (Santa Cruz; dilution 1:5000) following an enhanced chemiluminescence system (ECL, GE Healthcare Bioscience, Buckinghamshire, UK), and autoradiographic exposure to HyperfilmtECL (GE Healthcare Bioscience). Quantity One™ software v.4.6.3 (Bio-Rad) was used for quantification.

Assay [3] has as its system Tg2576 mice. The assay can be described thus: Morris water maze (MWM) test, memory retention in aged-Tg2576 mice. It is filed as in vivo. The settings on record: Retention phase of MWM test, day 9th, Vorinostat 12.5 mg/Kg i.p., Tadalafil 1 mg/Kg p.o., mean ± standard deviation. The protocol: (§3) The effect on memory function of Vorinostat (12.5 mg/kg, i.p.), Tadalafil (1 mg/Kg p.o.) and the combination (Vorinostat, 12.5 mg/Kg+Tadalafil 1 mg/Kg) was studied in Tg2576 mice (14-16 month) after a chronic treatment of 2-5 weeks by using two different behavioral tasks: the Fear Conditioning (FC) and the Morris water maze (MWM) tests. Tg2576 mice express the human 695-aa isoform of APP (hAPP) containing the Swedish double mutation, which favours AP production.
The MWM and the revesal_MWM test was used to evaluate spatial memory as previously described (Ricobaraza et al., 2009; Neuropsychopharmacology, 34, 1721-1732 and Ricobaraza et al., 2011, Frontiers in bioscience, 3, 1375-84). After 3 weeks of treatments, groups of animals underwent spatial reference learning and memory testing in the MWM. The water maze was a circular pool (diameter 1.2 m) filled with water maintained at 20° C. and made opaque by the addition of non-toxic white paint. […] In the probe trials the platform was removed from the pool, and the percentage of time spent in the quadrant where the platform was previously set was recorded.
(§4) All trials were monitored by a camera above the center of the pool connected to a SMART-LD program (Panlab S.L., Barcelona, Spain) for subsequent analysis of escape latencies, swimming speed, path length and percent time spent in each quadrant of the pool during probe trials. […]

In assay [4] the test system is Tg2576 mice. The assay can be described thus: Fear Conditioning (FC) test, memory function in aged-Tg2576 mice. It is filed as in vivo. The settings on record: Tg2576 mice (14-16 month), chronic treatment; Vorinostat 12.5 mg/kg i.p., Tadalafil 1 mg/kg p.o.; mean ± standard deviation. The protocol:
as §3
The behavioural procedure of FC task involved three phases: habituation, training and testing. During habituation phase, mice were habituated to the conditioning box (context) for 5 min with no stimuli presented. 24 hours later (training phase), mice were placed in the training chamber and allowed to explore for 2 min, afterward, a footshock (0.3 mA) unconditioned stimulus was administered (2 s) and 30 s after mice were returned to their home cage.
Mice were returned to the conditioning chamber 24 h after training and allowed to explore the context for 2 min, during which freezing behavior was recorded (contextual long term memory). Freezing scores were expressed as percentages. The conditioning procedure was carried out in a StartFear system (Panlab S.L., Barcelona, Spain) that allows recording and analysis of the signal generated by the animal movement through a high sensitivity Weight Transducer system. […]

Assay [5] concerns acetylated histone 3 at Lys9 (AcH3K9). Kind of assay: HDAC activity in SHSY-5Y: Western blot of acetylated histone 3 (AcH3K9). In kind it is cell-based, human. The settings on record: Vorinostat 10 nM alone, 2 hours, SHSY-5Y cell line. How it is done: as §2
A human neuroblastoma cell line (SHSY-5Y) was also used. Cell line was obtained from ATCC (CRL-2266) (Biedler et al., Cancer Research, 38, 3751-3757 1978) and cultured in 35 mm plates (Becton Dickinson, N.J.). The cells were grown to 90% confluence at 37° C. in an atmosphere of 5% CO2 and in Dulbecco's modified Eagle's medium supplemented with Glutamax (Gibco, Invitrogen, CA), 100 units/ml penicillin/streptomycin, 1× Minimum Essential Media (MEM) non essential amino acids and 10% fetal bovine serum (Gibco, Invitrogen, CA).
as §1, with “Cells were collected” for “Amyloid and Tau pathology was analyzed”, “a” for “the hippocampus of treated animals. Hippocampus was weighed and homogenized in 8 mass of ice-cold”, “Laboratories). […]” for “Laboratories).”

The subject of assay [6] is Tg2576 mice. The assay can be described thus: Reversal MWM after a 4-weeks wash-out period in aged-Tg2576 mice. In kind it is in vivo. The settings on record: Retention phase of Reversal_MWM test, day 6th, after 4-weeks wash-out, Vorinostat 12.5 mg/Kg, Tadalafil 1 mg/Kg, mean ± standard deviation. The protocol:
as §3
The MWM and the revesal_MWM test was used to evaluate spatial memory as previously described (Ricobaraza et al., 2009; Neuropsychopharmacology, 34, 1721-1732 and Ricobaraza et al., 2011, Frontiers in bioscience, 3, 1375-84). After 3 weeks of treatments, groups of animals underwent spatial reference learning and memory testing in the MWM. […] In the probe trials the platform was removed from the pool, and the percentage of time spent in the quadrant where the platform was previously set was recorded.
After a 4-weeks wash-out period of the drugs, a reversal phase of MWM was carried out. […] Memory retention was analyzed in a probe at day 6.
as §4

In assay [7] the test system is Aβ42. Kind of assay: Aβ42 levels in hippocampal extracts of treated Tg2576 mice (sandwich ELISA). In kind it is in vivo. The settings on record: Vorinostat 12.5 mg/Kg, Tadalafil 1 mg/Kg, mean ± standard deviation. The protocol:
as §1
Aβ42 levels in hippocampal extracts were measured with the 3D6 antibody (specific for amino acids 1-5 of Aβ; kit from Biosource, USA) using a sensitive sandwich ELISA kit from Biosource (Camarillo, Ca, USA) according to the manufacturer's instructions.

`O=C(CCCCCCC(=O)Nc1ccccc1)NO` [Vorinostat, 8-(hydroxyamino)-8-oxo-N-phenyl-octanamide]: the pTau/tTau in hippocampus in assay [1] is reported as 0.56 ± 0.09. The “AcH3 increment vs basal (no treatment)” value was “+ (basal ×1 means no increment (+))” in assay [2] (Vorinostat 50 nM alone); “+ (basal ×1 means no increment (+))” in assay [2] (compound alone 10 nM); “++ (basal ×2≦(++))” in assay [2] (compound alone 100 nM); “++ (basal ×2≦(++))” in assay [2] (compound alone 500 nM); “+ (basal ×1 means no increment (+))” in assay [5]. Moreover, the “MWM (% of time on right quadrant)” value in assay [3] is given as 16.3 ± 4.69%. Further, the “FC (% freezing)” value in assay [4] is 51.17 ± 14.8%. The “RMWM (% of time on right quadrant)” value in assay [6] is 14.88 ± 5.88%. Also, in assay [7], the “Aβ42 levels in hippocampus” value came to 12.81 ± 4.68 pg/mg.

For the molecule `CN1CC(=O)N2[C@H](c3ccc4c(c3)OCO4)c3[nH]c4ccccc4c3C[C@@H]2C1=O` [Tadalafil, (6R,12aR)-6-(1,3-Benzodioxol-5-yl)-2-methyl-2,3,6,7,12,12a-hexahydropyrazino[1′,2′: 1,6]pyrido[3,4-b]indole-1,4-dione], in assay [1], the pTau/tTau in hippocampus came out at 0.32 ± 0.03. Further, the “AcH3 increment vs basal (no treatment)” value in assay [2] (compound alone 10 nM), in assay [2] (compound alone 100 nM) and in assay [2] (compound alone 500 nM) was “+ (basal ×1 means no increment (+))” each time. Moreover, the “MWM (% of time on right quadrant)” value in assay [3] came out at 23.3 ± 7.63%. Also, in assay [4], the “FC (% freezing)” value worked out at 41.38 ± 12.3%. For the same molecule, the “RMWM (% of time on right quadrant)” value in assay [6] came to 21.26 ± 3.40%. Moreover, in assay [7], the “Aβ42 levels in hippocampus” value is reported as 14.89 ± 5.17 pg/mg.

Source of the values: patent publication US20170231931A1, “PRODUCTS FOR THE TREATMENT AND PREVENTION OF NEUROLOGICAL DISORDERS COURSING WITH A COGNITION DEFICIT OR IMPAIRMENT, AND OF NEURODEGENERATIVE DISEASES” (FUNDACIÓN PARA LA INVESTIGACIÓN MÉDICA APLICADA, priority 2014, published 2017).
